Test results published in paper PMC5827777, “Synthesis and biological evaluation of RGD and isoDGR peptidomimetic-α-amanitin conjugates for tumor-targeting” (Beilstein Journal of Organic Chemistry, 2018).

Legend:
[1] = test system: MDA-MB-468 cells (breast adenocarcinoma, αVβ3−); assay: cells; type: cell-based; conditions: 96 hours treatment; triplicate; read-out: IC50 MDA-MB-468 (αVβ3−), inhibition of cell viability
Protocol: (§1) The cell lines were treated with different concentrations of the free drug α-amanitin and conjugates 7–11 for 96 hours. […]
(§2) described recently.[S1] The SNP profiles matched known profiles or were unique. The purity of the cell lines was validated using the Multiplex cell Contamination Test by Multiplexion (Heidelberg, Germany) as described recently.[S2] No mycoplasma, SMRV or interspecies contamination was detected. U87-MG, MDA-MB 468 and A549 cells were cultivated continuously for not more than 3 months in MEM Eagle´s, DMEM or Ham´s F12 medium, respectively, supplemented with 10% heat inactivated fetus calf serum, L-glutamine and antibiotics. Cell lines were maintained at 37 °C and 5% CO2 in a high humidity atmosphere.
(§3) Cell therapy and viability assay
Cell viability assays were performed in U87-MG, A549 and MDA-MB 468 cell lines according to the following procedure: 2 × 10^3 cells/well were plated in 96-well black clear bottom plates (Perkin Elmer) and incubated overnight. 1:5 serial dilutions of compounds 7–11 were prepared in cell culture media. The compounds were added to the cell culture and incubated for additional 96 h. Starting concentration of compounds 7–11 in the wells was 1 × 10−5 M and cell viability was determined with the CellTiterGlo 2.0 assay (Promega) in accordance to manufacturer’s instructions. The cell viability was calculated in relation to the non-treated controls for each cell line. All samples were measured in triplicate. Data analysis was carried out using software GraphPad Prism (GraphPad Software Inc., La Jolla, CA, USA). […]
(§4) [S1] F. Castro, W. G. Dirks, S. Fähnrich, A. Hotz-Wagenblatt, M. Pawlita, M. Schmitt, Int. J. Cancer […]
(§5) [S2] M. Schmitt, M. Pawlita, Nucleic Acids Res. 2009, 37, e119.

[2] = test system: U87 cells (human glioblastoma, αVβ3+); assay: cells; type: cell-based
Protocol: as §1, §2, §3
Cell viability assays were performed in U87-MG, A549 and MDA-MB 468 cell lines according to the following procedure: 2 × 10^3 cells/well were plated in 96-well black clear bottom plates (Perkin Elmer) and incubated overnight. 1:5 serial dilutions of compounds 7–11 were prepared in cell culture media. The compounds were added to the cell culture and incubated for additional 96 h. Starting concentration of compounds 7–11 in the wells was 1 × 10−5 M and cell viability was determined with the CellTiterGlo 2.0 assay (Promega) in accordance to manufacturer’s instructions. The cell viability was calculated in relation to the non-treated controls for each cell line. All samples were measured in triplicate. Data analysis was carried out using software GraphPad Prism (GraphPad Software Inc., La Jolla, CA, USA).
Competition experiment of compounds 10 and 11
The competition experiment s were performed in U87-MG and MDA-MB 468 cell lines according to the following procedure: 2 × 10^3 cells/well were plated in 96-well black clear bottom plates (Perkin Elmer) and incubated overnight. A solution containing 1 × 10−4 M of the conjugates 10 or 11 and 5 × 10−3 M of cilengitide (50-fold excess of ligand in comparison to the conjugate) was prepared in the growth medium and 1:5 serial dilutions were prepared in cell culture media. The compounds were added to cell culture and incubated for 96 h. The starting concentration of the compounds in the wells was 0.01 mM whereas that of cilengitide was 0.5 mM. The cell viability was determined with the CellTiterGlo 2.0 assay (Promega) in accordance to manufacturer’s instructions and the viability was calculated in relation to the non-treated controls for each cell line. All samples were measured in triplicate. Data analysis was carried out using software GraphPad Prism (GraphPad Software Inc., La Jolla, CA, USA).
as §4, §5

CC[C@H](C)[C@@H]1NC(=O)CNC(=O)[C@@H]2Cc3c([nH]c4cc(OCc5ccc(NC(=O)[C@H](C)NC(=O)[C@@H](NC(=O)CCCC(=O)NCc6ccc(CN7C(=O)[C@H]8CC(=O)N[C@H](C(=O)O)CC(=O)NCC(=O)N[C@@H](CCCNC(=N)N)C(=O)NC[C@H]7C(=O)N8)cc6)C(C)C)cc5)ccc34)[S@+]([O-])C[C@H](NC(=O)CNC1=O)C(=O)N[C@@H](CC(N)=O)C(=O)N1C[C@H](O)C[C@H]1C(=O)N[C@@H]([C@@H](C)[C@@H](O)CO)C(=O)N2 [Compound 10, cyclo[DKP-isoDGR]-Val-Ala-α-amanitin]
IC50 [1]: 59 ± 23.4 nM | IC50 ([2]; 96 hours treatment, triplicate, read-out: IC50 U87 (αVβ3+), inhibition of cell viability): 143 ± 33.8 nM | more potent than α-amanitin ([2]; in U87, A549 and MDA-MB-468 cell lines, Table 3 entry 1 vs entry 5): 2.4–3.1 times
